Measurements published in patent publication US10975068B2, “6-aminopyridin-3-yl thiazoles as modulators of RORγT” (Janssen Pharmaceutica NV, priority 2016, dated 2021).
pIC50, pKd: −log10 of the molar value. Read-outs that look alike come from different tables or passages of the source. Marks after values point to notes of the source that are not given here.

Tests used:
[1] = target: full-length human RORγt (Homo sapiens (Human), UniProt P51449); test: RORγt (full-length human) reporter assay, Conditions B or C; assay type: cell-based; conditions: for inhibition at 3 µM: read-out: RORγt (FL) Reporter Assay B or C, % inhibition; for pIC50: read-out: RORγt (FL) Reporter Assay B or C, IC50; for RORγt (FL) Reporter Assay B or C, % inhibition (value marked *): marked *: footnote not given; for inhibition at 6 µM: read-out: RORγt (FL) Reporter Assay B or C, % inhibition @ 6 μM, Conditions B or C
Method in brief: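 HEK293T cells transiently co-transfected with GAL4-DBD–full-length human RORγt (nt 142-1635, NM_001001523.1) plus GAL4-firefly and CMV-Renilla luciferase reporters; compounds added 4-6 h post-transfection for 16-20 h in 1.3% FBS, 0.1% DMSO. Firefly signal normalized to DMSO and saturating reference compound, then to Renilla; IC50 from concentration plots.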

[2] = target: human RORγt ligand binding domain (RORγt LBD) (Homo sapiens (Human), UniProt P51449); test: RORγt ThermoFluor® assay (thermal shift binding); conditions: read-out: ThermoFluor® Assay, Kd
Method in brief: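 His-tagged human RORγt LBD (0.065 mg/mL) with 60 μM 1,8-ANS in 100 mM Hepes pH 7.0, 10 mM NaCl, 2.5 mM GSH, 0.002% Tween-20 was heated at 1 °C/min.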

Sequence of full-length human RORγt (P51449 other isoform, or with tags, fused parts or gaps): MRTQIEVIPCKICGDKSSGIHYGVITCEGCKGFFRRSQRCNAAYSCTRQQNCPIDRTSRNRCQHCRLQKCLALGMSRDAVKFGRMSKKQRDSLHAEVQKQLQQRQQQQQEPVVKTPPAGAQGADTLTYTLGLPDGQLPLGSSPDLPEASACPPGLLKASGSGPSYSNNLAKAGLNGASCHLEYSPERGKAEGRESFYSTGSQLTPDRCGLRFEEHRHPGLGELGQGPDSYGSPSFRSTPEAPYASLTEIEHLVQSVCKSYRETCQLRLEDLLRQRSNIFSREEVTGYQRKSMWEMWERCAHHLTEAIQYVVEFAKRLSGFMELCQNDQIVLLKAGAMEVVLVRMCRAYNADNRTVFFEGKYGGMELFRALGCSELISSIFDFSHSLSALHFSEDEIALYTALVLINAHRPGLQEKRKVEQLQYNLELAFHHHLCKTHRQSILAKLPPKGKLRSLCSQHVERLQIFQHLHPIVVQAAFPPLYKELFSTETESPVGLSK
Sequence of human RORγt ligand binding domain (RORγt LBD) (P51449 other isoform, or with tags, fused parts or gaps): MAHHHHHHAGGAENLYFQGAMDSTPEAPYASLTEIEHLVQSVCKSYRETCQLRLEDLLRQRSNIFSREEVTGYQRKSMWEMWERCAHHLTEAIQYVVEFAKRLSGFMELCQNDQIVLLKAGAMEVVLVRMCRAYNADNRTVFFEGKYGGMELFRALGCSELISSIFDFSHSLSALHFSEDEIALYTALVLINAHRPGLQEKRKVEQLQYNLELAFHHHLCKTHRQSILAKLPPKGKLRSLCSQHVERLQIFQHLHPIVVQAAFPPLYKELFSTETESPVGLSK

inhibition at 3 µM ([1]; at 3 μM compound concentration) [%]	pIC50 [1]	pKd [2]	RORγt (FL) Reporter Assay B or C, % inhibition (value marked *) ([1]; Conditions B or C)	pIC50 ([1]; Conditions B or C)	inhibition at 6 µM [1] [%]	RORγt (FL) Reporter Assay B or C, % inhibition ([1]; at 3 μM compound concentration)	SMILES
–	–	10.15	104* %	7.33	–	–	CCC(C)(C)Nc1cc(C(F)(F)F)c(-c2sc(C(=O)NCC(C)(C)O)nc2C(=O)N2CCCC[C@@H]2C)cn1 [Example 108, (S)—N-(2-Hydroxy-2-methylpropyl)-4-(2-methylpiperidine-1-carbonyl)-5-(6-(tert-pentylamino)-4-(trifluoromethyl)pyridin-3-yl)thiazole-2-carboxamide]
107	8.11	8.41	–	–	–	–	C[C@H]1CCCN1C(=O)c1nc(C(=O)NCCC(C)(C)O)sc1-c1cnc(NC(C)(C)C)cc1C(F)(F)F [Example 338, 5-[6-(tert-Butylamino)-4-(trifluoromethyl)-3-pyridyl]-N-(3-hydroxy-3-methyl-butyl)-4-[(2S)-2-methylpyrrolidine-1-carbonyl]thiazole-2-carboxamide]
107	7.80	9.60	–	–	–	–	C[C@H]1CCCN1C(=O)c1nc(C(=O)NC2CCS(=O)(=O)CC2)sc1-c1cnc(NC(C)(C)C)cc1C(F)(F)F [Example 254, 5-[6-(tert-Butylamino)-4-(trifluoromethyl)-3-pyridyl]-N-(1,1-dioxothian-4-yl)-4-[(2S)-2-methylpyrrolidine-1-carbonyl]thiazole-2-carboxamide]
96	6.92	8.92	–	–	–	–	C[C@H]1CC(F)(F)CN1C(=O)c1nc(C(=O)N[C@H](C)C(C)(C)O)sc1-c1cnc(NC2(C)CCC2)cc1C(F)F [Example 325, 4-((S)-4,4-Difluoro-2-methylpyrrolidine-1-carbonyl)-5-(4-(difluoromethyl)-6-((1-methylcyclobutyl)amino)pyridin-3-yl)-N—((R)-3-hydroxy-3-methylbutan-2-yl)thiazole-2-carboxamide]
99	7.55	9.10	–	–	–	–	C[C@H](Nc1cc(C(F)F)c(-c2sc(C(=O)NC3CCOCC3)nc2C(=O)N2CC(F)(F)C[C@@H]2C)cn1)C(F)(F)F [Example 448, 4-[(2S)-4,4-Difluoro-2-methyl-pyrrolidine-1-carbonyl]-5-[4-(difluoromethyl)-6-[[(1S)-2,2,2-trifluoro-1-methyl-ethyl]amino]-3-pyridyl]-N-tetrahydropyran-4-yl-thiazole-2-carboxamide]
–	–	8.64	101* %	7.51	–	–	C[C@@H](O)[C@@H](C)NC(=O)c1nc(C(=O)N2CCC[C@@H]2C)c(-c2cnc(NC(C)(C)C)cc2C(F)(F)F)s1 (relative stereo) [Example 237, 5-(6-(tert-Butylamino)-4-(trifluoromethyl)pyridin-3-yl)-N-((2R*,3R*)-3-hydroxybutan-2-yl)-4-((S)-2-methylpyrrolidine-1-carbonyl)thiazole-2-carboxamide]
–	–	9.59	–	8.66	109	–	C[C@H]1CCCCN1C(=O)c1nc(C(=O)NCC(C)(C)O)sc1-c1cnc(N[C@H]2CCCCC2(F)F)cc1C(F)(F)F (relative stereo) [Example 32, 5-(6-(((S*)-2,2-Difluorocyclohexyl)amino)-4-(trifluoromethyl)pyridin-3-yl)-N-(2-hydroxy-2-methylpropyl)-4-((S)-2-methylpiperidine-1-carbonyl)thiazole-2-carboxamide]
89	7.12	8.68	–	–	–	–	C[C@H](CO)NC(=O)c1nc(C(=O)N2CC(F)(F)C[C@@H]2C)c(-c2cnc(N[C@@H](C)C(F)(F)F)cc2C(F)F)s1 [Example 447, 4-[(2S)-4,4-Difluoro-2-methyl-pyrrolidine-1-carbonyl]-5-[4-(difluoromethyl)-6-[[(1S)-2,2,2-trifluoro-1-methyl-ethyl]amino]-3-pyridyl]-N-[(1R)-2-hydroxy-1-methyl-ethyl]thiazole-2-carboxamide]
110	7.52	8.08	–	–	–	–	C[C@H]1CCCN1C(=O)c1nc(C(=O)N2CC[C@H](O)C2)sc1-c1cnc(NC(C)(C)C)cc1C(F)(F)F [Example 350, [5-[6-(tert-Butylamino)-4-(trifluoromethyl)-3-pyridyl]-2-[(3S)-3-hydroxypyrrolidine-1-carbonyl]thiazol-4-yl]-[(2S)-2-methylpyrrolidin-1-yl]methanone]
90	7.01	9.15	–	–	–	–	C[C@H](NC(=O)c1nc(C(=O)N2CC(F)(F)C[C@@H]2C)c(-c2cnc(NC3(C)CCC3)cc2C(F)F)s1)C(C)(C)O [Example 326, 4-((S)-4,4-Difluoro-2-methylpyrrolidine-1-carbonyl)-5-(4-(difluoromethyl)-6-((1-methylcyclobutyl)amino)pyridin-3-yl)-N—((S)-3-hydroxy-3-methylbutan-2-yl)thiazole-2-carboxamide]
–	–	9.77	–	7.85	123	–	C[C@H]1CCCCN1C(=O)c1nc(C(=O)NC2CCS(=O)(=O)CC2)sc1-c1cnc(NC2CCCC2)cc1C(F)(F)F [Example 28, (S)-5-(6-(Cyclopentylamino)-4-(trifluoromethyl)pyridin-3-yl)-N-(1,1-dioxidotetrahydro-2H-thiopyran-4-yl)-4-(2-methylpiperidine-1-carbonyl)thiazole-2-carboxamide]
99	8.11	8.47	–	–	–	–	C[C@H]1CCCN1C(=O)c1nc(C(=O)NCC(C)(C)O)sc1-c1cnc(N[C@H](C)C(C)(C)C)cc1C(F)F [Example 298, 5-(4-(Difluoromethyl)-6-(((R)-3,3-dimethylbutan-2-yl)amino)pyridin-3-yl)-N-(2-hydroxy-2-methylpropyl)-4-((S)-2-methylpyrrolidine-1-carbonyl)thiazole-2-carboxamide]
91	7.10	7.54	–	–	–	–	C[C@H]1CCCN1C(=O)c1nc(C(=O)N[C@H]2C[C@H](O)C2)sc1-c1cnc(N[C@H](C)C(F)(F)F)cc1C(F)F [Example 319, 5-(4-(Difluoromethyl)-6-(((R)-1,1,1-trifluoropropan-2-yl)amino)pyridin-3-yl)-N-((1r,3S)-3-hydroxycyclobutyl)-4-((S)-2-methylpyrrolidine-1-carbonyl)thiazole-2-carboxamide]
–	–	8.26	92* %	7.54	–	–	C[C@H](NC(=O)c1nc(C(=O)N2CCC[C@@H]2C)c(-c2cnc(NC(C)(C)C)cc2C(F)(F)F)s1)[C@@H](C)O (relative stereo) [Example 238, 5-(6-(tert-Butylamino)-4-(trifluoromethyl)pyridin-3-yl)-N-((2S*,3R*)-3-hydroxybutan-2-yl)-4-((S)-2-methylpyrrolidine-1-carbonyl)thiazole-2-carboxamide]
100	7.54	8.80	–	–	–	–	CC(C)[C@H](C)Nc1cc(C(F)F)c(-c2sc(C(=O)NCC(C)(C)O)nc2C(=O)N2CCC[C@@H]2C)cn1 [Example 300, 5-(4-(Difluoromethyl)-6-(((S)-3-methylbutan-2-yl)amino)pyridine-3-yl)-N-(2-hydroxy-2-methylpropyl)-4-((S)-2-methylpyrrolidine-1-carbonyl)thiazole-2-carboxamide]
–	–	8.33	85* %	7.06	–	–	C[C@H](Nc1cc(C(F)F)c(-c2sc(C(=O)N[C@H](C)C(C)(C)O)nc2C(=O)N2CC(F)(F)C[C@@H]2C)cn1)C1CC1 [Example 194, 5-(6-(((S)-1-Cyclopropylethyl)amino)-4-(difluoromethyl)pyridine-3-yl)-4-((S)-4,4-difluoro-2-methylpyrrolidine-1-carbonyl)-N—((R)-3-hydroxy-3-methylbutan-2-yl)thiazole-2-carboxamide]
–	6.85	8.11	–	–	–	90* %	C[C@H](Nc1cc(C(F)F)c(-c2sc(C(=O)NC3CCC3O)nc2C(=O)N2CCC[C@@H]2C)cn1)C(F)(F)F (stereo partly drawn) [Example 389, 5-(4-(Difluoromethyl)-6-(((S)-1,1,1-trifluoropropan-2-yl)amino)pyridin-3-yl)-N-(cis-2-hydroxycyclobutyl)-4-((S)-2-methylpyrrolidine-1-carbonyl)thiazole-2-carboxamide]

SMILES	inhibition at 3 µM ([1]; at 3 μM compound concentration) [%]	pIC50 [1]	pKd [2]	RORγt (FL) Reporter Assay B or C, % inhibition (value marked *) ([1]; Conditions B or C)	pIC50 ([1]; Conditions B or C)	inhibition at 6 µM [1] [%]	RORγt (FL) Reporter Assay B or C, % inhibition ([1]; at 3 μM compound concentration)
C[C@H](Nc1cc(C(F)F)c(-c2sc(C(=O)N[C@H](C)C(C)(C)O)nc2C(=O)N2C3CCC2CC3)cn1)C(F)(F)F [Example 445, 4-((1s,4s)-7-Azabicyclo[2.2.1]heptane-7-carbonyl)-5-[4-(difluoromethyl)-6-[[(1S)-2,2,2-trifluoro-1-methyl-ethyl]amino]-3-pyridyl]-N-[(1R)-2-hydroxy-1,2-dimethyl-propyl]thiazole-2-carboxamide]	73	7.02	7.92	–	–	–	–
CC[C@H](Nc1cc(C(F)F)c(-c2sc(C(=O)N[C@H]3CCC[C@@H]3O)nc2C(=O)N2C3CCC2CC3)cn1)C(F)(F)F [Example 210, 4-((1s,4s)-7-Azabicyclo[2.2.1]heptane-7-carbonyl)-5-(4-(difluoromethyl)-6-(((1S)-1-(trifluoromethyl)propyl)amino)-3-pyridyl)-N-((1S,2S)-2-hydroxycyclopentyl)thiazole-2-carboxamide]	–	–	9.16	105* %	7.68	–	–
